Results taken from US9771376B2 (GENENTECH, INC., priority 2000, dated 2017).

Molecular target: human NaV1.5 (Homo sapiens (Human), UniProt Q14524)
Assay: Patch voltage clamp electrophysiology assay, NaV1.5
Conditions: read-out: Human 1.5 EP IC50 μM; inactivated state; HEK-293 cells stably expressing NaV1.5 with β1 subunit; held at −60 mV

| Molecule | IC50 [µM] |
| --- | --- |
| 4-(adamantan-1-ylmethoxy)-5-chloro-2-fluoro-N-(methylsulfonyl)benzamide [Example 8] | 1.07 |

Molecular target: human NaV1.7 (Homo sapiens (Human), UniProt Q15858)
Sequence (Q15858 other isoform, or with tags, fused parts or gaps): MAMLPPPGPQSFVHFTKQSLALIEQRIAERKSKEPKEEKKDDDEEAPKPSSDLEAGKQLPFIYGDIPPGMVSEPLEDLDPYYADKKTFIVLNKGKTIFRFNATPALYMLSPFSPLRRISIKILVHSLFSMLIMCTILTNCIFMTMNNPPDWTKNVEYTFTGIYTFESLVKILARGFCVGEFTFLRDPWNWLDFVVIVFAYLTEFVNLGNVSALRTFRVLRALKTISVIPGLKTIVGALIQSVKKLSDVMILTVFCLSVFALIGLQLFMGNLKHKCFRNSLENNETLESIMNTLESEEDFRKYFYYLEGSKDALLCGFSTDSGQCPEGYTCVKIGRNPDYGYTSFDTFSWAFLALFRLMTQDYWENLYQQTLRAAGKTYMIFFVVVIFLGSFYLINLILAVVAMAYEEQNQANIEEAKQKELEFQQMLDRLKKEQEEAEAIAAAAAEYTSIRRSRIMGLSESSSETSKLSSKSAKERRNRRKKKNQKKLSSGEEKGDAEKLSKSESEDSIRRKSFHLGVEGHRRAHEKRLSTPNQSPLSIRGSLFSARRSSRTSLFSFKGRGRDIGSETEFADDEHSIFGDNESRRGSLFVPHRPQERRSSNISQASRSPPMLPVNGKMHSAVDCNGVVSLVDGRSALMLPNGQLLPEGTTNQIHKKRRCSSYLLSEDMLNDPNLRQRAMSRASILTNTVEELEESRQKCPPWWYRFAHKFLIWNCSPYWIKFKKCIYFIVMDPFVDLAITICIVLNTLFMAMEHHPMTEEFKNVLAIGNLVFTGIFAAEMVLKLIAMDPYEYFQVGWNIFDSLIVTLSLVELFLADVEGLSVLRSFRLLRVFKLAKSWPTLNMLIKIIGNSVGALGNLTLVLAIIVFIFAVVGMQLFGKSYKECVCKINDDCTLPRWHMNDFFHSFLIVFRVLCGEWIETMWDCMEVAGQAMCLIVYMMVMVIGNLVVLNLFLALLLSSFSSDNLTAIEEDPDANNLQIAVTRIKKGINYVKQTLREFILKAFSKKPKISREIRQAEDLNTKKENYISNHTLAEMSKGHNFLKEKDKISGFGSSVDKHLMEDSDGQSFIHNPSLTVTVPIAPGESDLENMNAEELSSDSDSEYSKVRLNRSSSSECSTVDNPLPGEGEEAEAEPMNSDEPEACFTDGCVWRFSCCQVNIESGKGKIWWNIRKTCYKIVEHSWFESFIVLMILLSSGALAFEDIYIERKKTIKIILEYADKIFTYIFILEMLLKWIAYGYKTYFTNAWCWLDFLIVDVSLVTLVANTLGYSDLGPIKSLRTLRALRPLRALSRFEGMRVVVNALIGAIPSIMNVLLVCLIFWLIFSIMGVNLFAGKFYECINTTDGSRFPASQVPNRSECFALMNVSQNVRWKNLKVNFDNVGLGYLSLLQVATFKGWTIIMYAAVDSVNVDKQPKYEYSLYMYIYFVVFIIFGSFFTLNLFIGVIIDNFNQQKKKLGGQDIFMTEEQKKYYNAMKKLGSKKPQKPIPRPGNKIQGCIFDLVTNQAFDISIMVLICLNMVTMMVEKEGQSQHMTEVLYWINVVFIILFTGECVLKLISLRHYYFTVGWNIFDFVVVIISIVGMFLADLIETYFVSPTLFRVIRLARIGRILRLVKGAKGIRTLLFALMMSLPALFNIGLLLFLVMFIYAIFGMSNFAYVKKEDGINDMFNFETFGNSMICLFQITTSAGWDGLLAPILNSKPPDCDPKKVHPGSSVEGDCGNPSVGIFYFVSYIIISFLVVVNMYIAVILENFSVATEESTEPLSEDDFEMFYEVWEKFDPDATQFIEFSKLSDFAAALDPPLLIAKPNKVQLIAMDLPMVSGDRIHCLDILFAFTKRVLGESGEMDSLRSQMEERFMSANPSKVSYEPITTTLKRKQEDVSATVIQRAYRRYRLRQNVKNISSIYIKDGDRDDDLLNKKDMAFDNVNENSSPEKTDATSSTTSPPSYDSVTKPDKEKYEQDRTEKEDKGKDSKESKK
Sequence (Q07699 19-218 partner): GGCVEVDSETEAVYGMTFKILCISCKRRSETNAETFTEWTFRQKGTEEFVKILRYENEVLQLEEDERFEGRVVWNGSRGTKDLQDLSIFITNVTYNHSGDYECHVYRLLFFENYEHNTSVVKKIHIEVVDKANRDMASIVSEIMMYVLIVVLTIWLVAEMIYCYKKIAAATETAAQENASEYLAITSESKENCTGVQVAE
Assay: Patch voltage clamp electrophysiology assay, NaV1.7
Assay type: cell-based
Conditions: inactivated state; HEK-293 cells stably expressing NaV1.7 with β1 subunit; held at −60 mV; read-out: Human 1.7 EP (IC50 μM)

| Molecule | IC50 [µM] |
| --- | --- |
| 4-(1-(adamantan-1-yl)ethoxy)-5-chloro-2-fluoro-N-(methylsulfonyl)benzamide [Example 19] | 0.0386 |
| 4-(2-(adamantan-1-yl)ethoxy)-3-chloro-N-(methylsulfonyl)benzamide [Example 13] | 0.123 |
| 4-(adamantan-1-ylmethoxy)-5-chloro-N-(N,N-dimethylsulfamoyl)-2-fluorobenzamide [Example 28] | 2.25 |
| 4-(bicyclo[2.2.1]heptan-2-yloxy)-5-chloro-2-fluoro-N-(methylsulfonyl)-benzamide [Example 145] | 0.0036 |
| 5-Chloro-2-fluoro-N-(methylsulfonyl)-4-((2,2,3,3-tetramethylcyclopropyl)-methoxy)benzamide [Example 34] | 0.0658 |
| 5-chloro-2-fluoro-N-(methylsulfonyl)-4-((1-(trifluoromethyl)cyclopropyl)-methoxy)benzamide [Example 36] | 0.0077 |
| 5-chloro-4-(3-cyclohexylpropoxy)-N-(N,N-dimethylsulfamoyl)-2-fluorobenzamide [Example 82] | 0.0416 |
| CC1(C)C2CCC1(C)C(Oc1cc(F)c(C(=O)NS(C)(=O)=O)cc1Cl)C2 (stereo not drawn) [Example 15, 5-chloro-2-fluoro-N-(methylsulfonyl)-4-((exo-1,7,7-trimethylbicyclo[2.2.1]heptan-2-yl)oxy)benzamide] | 0.171 |
| CS(=O)(=O)NC(=O)c1cc(Cl)c(OC2[C@@H]3CC4C[C@H]2CC(Cl)(C4)C3)cc1F (stereo partly drawn) [Example 25, 5-chloro-4-(((1R,2r,3S,5s,7s)-5-chloroadamantan-2-yl)oxy)-2-fluoro-N-(methylsulfonyl)benzamide] | 0.027 |
| CN(C)S(=O)(=O)NC(=O)c1cc(Cl)c(OC2CCC3(CCCCC3)CC2)cc1F [Example 79] | 0.0854 |
| CN(C)S(=O)(=O)NC(=O)c1cc(Cl)c(OCC23CC4CC(CC(F)(C4)C2)C3)cc1F [Example 86, 5-chloro-N-(N N-dimethylsulfamoyl)-2-fluoro-4-((3-fluoroadamantan-1-yl)methoxy)benzamide] | 0.00131 |
